The text below walks through data of patent publication US20110189266A1, “CORTICOSTEROID MICROVESICLES FOR TREATMENT OF CARDIOVASCULAR DISEASES” (MOUNT SINAI SCHOOL OF MEDICINE OF NEW YORK UNIVERSITY, priority 2008, published 2011).

Assay [1] deals with atherosclerotic plaques of the abdominal aorta. In words: 18F-FDG PET/CT of the abdominal aorta (mean SUV), rabbit model of atherosclerosis. It is filed as in vivo, New Zealand White (NZW) rabbits. The following applies: single i.v. injection 15 mg/kg.
Method: Seventeen male New Zealand White (NZW) rabbits (mean age 7 months; mean weight 3.5±0.2 kg; Covance) were included in this study. Aortic atherosclerotic plaques were induced in 15 NZW rabbits, through a well established model^18, by a combination of 7 months of high cholesterol diet (4.7% palm oil and 0.3% cholesterol-enriched diet; Research Diet Inc.) and a repeated balloon injury of the aorta (two weeks and six weeks after starting the high cholesterol diet). Aortic injury was performed from the aortic arch to the iliac bifurcation with a 4F Fogarty embolectomy catheter introduced through the femoral artery. […]
PET/CT images were analyzed on a Xeleris workstation. […] SUV was calculated by dividing the tissue concentration (kBq/mL) by the injected dose per gram of body weight (kBq/g).
The scans allow the quantification of the standard uptake value (SUV) of ^18F-FDG in the abdominal aorta. The SUV is the decay-corrected tissue concentration of FDG (in kBq/g), corrected for injected FDG dose and body weight (in kBq/g), and is a well-recognized method for quantification of FDG PET data. Prior to start of treatment, the aortas of six atherosclerotic rabbits and two non-atherosclerotic rabbits were measured to establish mean SUV levels of atherosclerotic and non-atherosclerotic rabbits.
Assay [2] relates to atherosclerotic plaque permeability, aortic wall. In words: Dynamic contrast enhanced MRI (DCE-MRI) to quantify changes in plaque permeability. The following applies: before vs two days after administration. It is filed as in vivo, New Zealand White (NZW) rabbits.
In assay [3] the test system is neo-intimal formation. The settings on record: prednisone- and Taxus stent-treated animals; Ribichini et al 2007; cited from earlier work.

For the compound “prednisolone phosphate disodium salt [free circulating glucocorticoids]”, in assay [1], the “SUV differences between pre, and two and seven days post treatment” value is “no significant SUV differences”. The “SUV change one week post-treatment” value in assay [1] (one week post-treatment vs pre, p=0.006 (liposomal), p=0.40 (free)) is reported as “no SUV reduction”. Also, the “change of DCE-MRI area under the curve (AUC) of the aortic wall” value in assay [2] is “not”.
For the compound `C[C@]12C=CC(=O)C=C1CC[C@@H]1[C@@H]2C(=O)C[C@@]2(C)[C@H]1CC[C@]2(O)C(=O)CO` [prednisone], the neo-intimal formation entry in assay [3] is on record as “reduced neo-intimal formation”.
